Assay results published in the NIST ThermoML archive (doi:10.1016/j.jct.2013.05.051).

Settings: Liquid, Vibrating tube method

CCCCCCCO [heptan-1-ol]
mass density [kg/m3]
Settings | 298.15 K | 313.15 K | 333.15 K | 353.15 K | 373.15 K | 393.15 K
100 kPa | 818.7 | 808 | 793.3 | 778.1 | 761.9 | 744.9
1000 kPa | 819.3 | 808.6 | 794 | 778.8 | 762.8 | 745.8
5000 kPa | 821.9 | 811.4 | 797.1 | 782.3 | 766.6 | 750.2
10000 kPa | 824.9 | 814.7 | 800.7 | 786.3 | 771.1 | 755.3
15000 kPa | 828 | 817.9 | 804.3 | 790.2 | 775.5 | 760.1
20000 kPa | 830.8 | 821 | 807.7 | 793.9 | 779.5 | 764.6
25000 kPa | 833.5 | 823.8 | 810.8 | 797.3 | 783.4 | 768.8
30000 kPa | 836.3 | 826.8 | 813.9 | 800.7 | 787.1 | 772.9
35000 kPa | 838.8 | 829.5 | 816.9 | 804 | 790.6 | 776.8
40000 kPa | 841.3 | 832.1 | 819.8 | 807.1 | 794 | 780.4
45000 kPa | 843.8 | 834.7 | 822.4 | 810 | 797.2 | 783.9
50000 kPa | 846.2 | 837.2 | 825.2 | 813 | 800.3 | 787.3
55000 kPa | 848.5 | 839.7 | 827.8 | 815.8 | 803.4 | 790.7
60000 kPa | 850.8 | 842.1 | 830.3 | 818.6 | 806.3 | 793.8
65000 kPa | 853 | 844.4 | 832.9 | 821.2 | 809.2 | 796.8
70000 kPa | 855.2 | 846.7 | 835.3 | 823.8 | 811.9 | 799.8
80000 kPa | 859.4 | 851.1 | 839.9 | 828.7 | 817.2 | 805.5
90000 kPa | 863.5 | 855.3 | 844.5 | 833.5 | 822.3 | 810.9
100000 kPa | 867.3 | 859.3 | 848.7 | 837.9 | 827 | 815.9
110000 kPa | 871.1 | 863.2 | 852.8 | 842.3 | 831.6 | 820.8
120000 kPa | 874.6 | 867 | 856.8 | 846.4 | 835.9 | 825.3
130000 kPa | 878.1 | 870.6 | 860.5 | 850.3 | 840.2 | 829.8
140000 kPa | 881.5 | 874.2 | 864.3 | 854.3 | 844.1 | 834

CCCCCCC [heptane]
mass density [kg/m3]
Settings | 298.15 K | 313.15 K | 333.15 K | 353.15 K | 373.15 K | 393.15 K
100 kPa | 679.5 | 666.6 | 648.9 | 631.2 | – | –
1000 kPa | 680.4 | 667.6 | 650 | 632.1 | 613.3 | 593.5
5000 kPa | 684.2 | 671.8 | 655 | 637.8 | 620.1 | 601.7
10000 kPa | 688.6 | 676.7 | 660.6 | 644.3 | 627.7 | 610.6
15000 kPa | 692.8 | 681.3 | 665.8 | 650.3 | 634.5 | 618.4
20000 kPa | 696.7 | 685.6 | 670.6 | 655.7 | 640.7 | 625.4
25000 kPa | 700.4 | 689.5 | 675.1 | 660.8 | 646.3 | 631.7
30000 kPa | 704 | 693.5 | 679.4 | 665.5 | 651.6 | 637.5
35000 kPa | 707.4 | 697.1 | 683.4 | 670 | 656.5 | 643
40000 kPa | 710.7 | 700.5 | 687.3 | 674.1 | 661.1 | 648
45000 kPa | 713.8 | 703.9 | 690.9 | 678.1 | 665.5 | 652.8
50000 kPa | 716.8 | 707.2 | 694.4 | 682 | 669.6 | 657.2
55000 kPa | 719.7 | 710.3 | 697.7 | 685.5 | 673.5 | 661.5
60000 kPa | 722.5 | 713.3 | 701 | 689.1 | 677.3 | 665.5
65000 kPa | 725.2 | 716.1 | 704.1 | 692.4 | 680.8 | 669.3
70000 kPa | 727.9 | 718.9 | 707.1 | 695.7 | 684.3 | 673.1
80000 kPa | 732.9 | 724.2 | 712.8 | 701.7 | 690.8 | 680.1
90000 kPa | 737.7 | 729.3 | 718.2 | 707.5 | 696.9 | 686.5
100000 kPa | 742.3 | 734 | 723.2 | 712.8 | 702.6 | 692.5
110000 kPa | 746.6 | 738.6 | 728.1 | 717.9 | 708 | 698.2
120000 kPa | 750.7 | 742.8 | 732.6 | 722.7 | 713 | 703.4
130000 kPa | 754.6 | 747 | 737 | 727.3 | 717.9 | 708.5
140000 kPa | 758.4 | 751.1 | 741.1 | 731.6 | 722.3 | 713.4
